The source of these data is patent publication EP0691985B1, “[…]” (MERRELL PHARMACEUTICALS INC., priority 1993, dated 1994).

The structures appear in SMILES notation.

The test system of assay [1] is Endothelin Converting Enzyme (ECE). The settings on record: read-out: IC50 (concentration inhibiting 50% of the effect of pro-ETl 10^-6M); rat striatum slices; pro-ET-l 10^-6M; [3H]-IPl accumulation; determined graphically.
From the text: In vitro Endothelin Converting Enzyme (ECE) assay via IPl formation in rat brain slices. This assay measures the enzymatic activity responsible for the generation of functional ET-l from pro-ET-l by measuring the stimulation of phosphatidyl inositol turnover as a marker of ET-l effects:
The precursor of ET-l, i.e., proendothelin-l (pro-ET-l), is unable to stimulate the phosphatidyl inositol turnover unless it is cleaved by a specific phosphoramidon sensitive protease, i.e., endothelin converting enzyme (ECE). […] For this assay, an adaptation of the procedure of Brown et al., J. Neurochem., 42:1379, 1984, was used.
The exact concentration of these solutions was checked by absorbance spectrophotometry at 280 nm, using the equation C = A / L ε280 [formula] (with C the concentration of the peptide in solution, A the absorbance measured, L the optical path length of the solution and ε280 the extinction coefficient of the peptide in solution (8370 and 7025 M^-1cm^-1 for pro-ET-l and ET-l, respectively)]. The stock solutions were then aliquoted, lyophilized and stored at -20°C. The peptides were redissolved and diluted in water on the day of the experiment (peptides for other tests also prepared by this method ). […]
In these conditions the stimulation of phosphatidyl inositol turnover by pro-ET-l can be assessed by measuring the amount of accumulated [^3H]-IPl.
A further assay relates to ET receptors. Description: Effect of ET-l on phosphatidyl inositol turnover (IPl formation) in rat brain slices, counter-test. The format is cell-based. The settings on record: rat striatum slices, ETl 10^-6M. The procedure: The buffer was changed every 15 minutes.

With `CC(C)C[C@H](NP(=O)(O)O[C@@H]1O[C@@H](C)[C@H](O)[C@@H](O)[C@H]1O)C(=O)N[C@@H](Cc1c[nH]c2ccccc12)C(=O)O` [phosphoramidon], the IC50 was 6.4 ± 1.1 µM in assay [1] and > 30 µM in the assay with ET receptors ([3H]-IPl accumulation, determined graphically, read-out: RC50 (concentration reducing 50% of the effect of ETl 10^-6M)). In addition, the “% of maximal reduction observed” value in the assay on ET receptors (recorded when RC50 >30 µM (up to 3 × 10^-5M)) is 75 ± 9%.
